Reference: patent US20060020036A1, “Methods and compositions to promote bone homestasis” (priority 2004, published 2006)
“Also recorded” adds a separate entry of the source.

Target: T1, NR1H2 (Homo sapiens, UniProt P55055)
T1 construct: amplification of the complete open reading frame from ATG start codon to the stop codon of drugable genes; expressed in transfected cells; host or cells: primary human mesenchymal progenitor cells (MPCs), transduced with Ad5-NR1H2 and Ad-hCAR
T1 sequence (P55055 1-460): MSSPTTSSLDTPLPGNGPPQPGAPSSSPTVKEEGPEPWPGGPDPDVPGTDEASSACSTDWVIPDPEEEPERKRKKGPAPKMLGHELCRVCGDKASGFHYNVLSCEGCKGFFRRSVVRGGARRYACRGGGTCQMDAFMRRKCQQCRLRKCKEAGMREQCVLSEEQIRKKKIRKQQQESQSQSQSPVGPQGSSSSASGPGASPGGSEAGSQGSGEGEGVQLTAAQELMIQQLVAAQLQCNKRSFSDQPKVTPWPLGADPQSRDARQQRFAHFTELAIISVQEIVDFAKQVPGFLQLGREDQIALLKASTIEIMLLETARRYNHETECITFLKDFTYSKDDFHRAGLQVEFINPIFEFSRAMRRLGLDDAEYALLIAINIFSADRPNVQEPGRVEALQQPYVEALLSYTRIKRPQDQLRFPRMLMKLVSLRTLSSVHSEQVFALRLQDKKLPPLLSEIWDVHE
Experiment: AP assay: MPCs infected with Ad-NR1H2 and treated with ligand
Assay type: cell-based
Details: ligand at different concentrations
Method: MPCs are seeded on day0 at 1000 cells per well of a 384 well plate and co-infected the next day using AdC51-hCAR (MOI 250) and different MOIs of Ad5-NR1H3 (MOI 2000, 666). On day 1, 5 concentrations (1E-9M, 1E-8M, 1E-7M, 1E-6M, 1E-5M) of the compound T0901317 (Cayman Chemical, Michigan, USA, Cat. No. 71810) with fixed vehicle concentration (DMSO at final concentration of 0.1%) are added to the wells. After 6 days, medium is removed and replaced with fresh medium containing the same concentrations of the compound T0901317. Readouts of AP activity are performed at several time points after the start of the experiment, typically after 7, 10 and 13 days. Up-regulation of alkaline phosphatase activity is read as follows: medium is removed from the monolayers, 15 μl MUP is added to each well, the plates are incubated for 15 min at 37° C. and then read for AP activity using a fluorescence plate reader (Fluostar, BMG).
(§1) MPCs are seeded on day 0 at 1000 cells per well of a 384 well plate and co-infected the next day using AdC51-hCAR (MOI 250) and different MOIs of Ad5-NR1H2 (MOI 2000, 666). […] Readouts of AP activity are performed at several time points after the start of the experiment, typically after 7, 10 and 13 days. Up-regulation of alkaline phosphatase activity is read as follows: medium is removed from the monolayers, 15 μL MUP is added to each well, the plates are incubated for 15 min at 37° C. and then read for AP activity using a fluorescence plate reader (Fluostar, BMG).
as §1, with “day0” for “day 0”, “AdC5′-hCAR” for “AdC51-hCAR”, “Ad5-NR1H2 or Ad-NR1H3” for “Ad5-NR1H2”, “6000).” for “666).”, “μl” for “μL”

Structure (SMILES) | up-regulation of endogenous alkaline phosphatase (AP) activity, dose-response
O=C(O)Cc1cccc(OCCCN(Cc2cccc(C(F)(F)F)c2Cl)CC(c2ccccc2)c2ccccc2)c1 [GW3965, 2-(3-(3-(N-(2-chloro-3-(trifluoromethyl)benzyl)-N-(2,2-diphenylethyl)amino)propoxy)phenyl)acetic acid] | dose-response relation is observed; also recorded: AP activity is up-regulated; also recorded: Dose-dependent up-regulation of AP activity
CC(=O)Oc1ccc2c(c1)[C@@]1(C)CCC[C@](C)(C(=O)OC(=O)[C@@]3(C)CCC[C@]4(C)c5cc(OC(C)=O)ccc5CC[C@@H]34)[C@@H]1CC2 [APD, acetyl podocarpic dimer] | dose-response relation is observed; also recorded: AP activity is up-regulated; also recorded: Dose-dependent up-regulation of AP activity
O=S(=O)(c1ccccc1)N(CC(F)(F)F)c1ccc(C(O)(C(F)(F)F)C(F)(F)F)cc1 [T0901317, N-(2,2,2-trifluoroethyl)-N-[4-[2,2,2-trifluoro-1-hydroxy-1-(trifluoromethyl)ethyl]phenyl]-benzenesulfonamide] | dose-response relation is observed; also recorded: AP activity is up-regulated; also recorded: Dose-dependent up-regulation of AP activity
